Test results from US20040208828A1, “Enantiomer-pure (4S,8S)- and (4R,8R)-4-p-nitrobenzyl-8-methyl-3,6,9-triaza-3N,6N,9N-tricarboxymethyl-1,11-undecanedioic acid and derivatives thereof, process for their production and use for the production of pharmaceutical agents” (priority 2003, published 2004).

Legend:
[1] = McMurry et al., J. Med. Chem. (1998), 41, 3546-3549; cited from earlier work
[2] = compared to the unsubstituted DTPA; cited from earlier work
[3] = competition complexation: mixture of one equivalent each of Va, VIa and Gd(III) salt; type: physicochemical; conditions: one equivalent each of Va (R=-NO2)
Description: (§1) In this case, as was discovered, the configuration of methyl- and benzyl substituent must be present as (4S,8S) (see compound Va) or (4R,8R) (see compound Vb) to achieve the described positive effect.

[4] = radiotoxicity of the metal complex in vivo; conditions: compared to compound VIa
Description: as §1

[5] = complex stability / complexing properties, comparison of stereoisomers; type: physicochemical; conditions: comparison of configurations (4S,8S)/(4R,8R) with (4S,8R)/(4R,8S)
Description: as §1

[6] = thermodynamic stability constant of the metal complex (logKY); type: physicochemical; conditions: in vitro
Description: as §1

O=C(O)CN(CC(=O)O)[C@H](Cc1ccc([N+](=O)[O-])cc1)CN(CC(=O)O)[C@@H]1CCCC[C@H]1N(CC(=O)O)CC(=O)O [II]
in-vitro and in-vivo stability [1]: higher in-vitro and in-vivo stability than compound III

CC(CN(CC(=O)O)C[C@H](Cc1ccc([N+](=O)[O-])cc1)N(CC(=O)O)CC(=O)O)N(CC(=O)O)CC(=O)O (stereo partly shown) [MX-DTPA]
complex stability (in words) [2]: increased complex stability compared to the unsubstituted DTPA

C[C@@H](CN(CC(=O)O)C[C@H](Cc1ccc([N+](=O)[O-])cc1)N(CC(=O)O)CC(=O)O)N(CC(=O)O)CC(=O)O [Va]
Gd complex formed in competition [3]: almost exclusively the Gd complex of compound Va is formed
radiotoxicity of the metal complex [4]: reduced in vivo compared to compound VIa
complex stability / complexing properties (in words) [5]: considerably better complexing properties than compounds VIa and VIb
thermodynamic stability constant logKY [6]: 24.7±0.7

C[C@H](CN(CC(=O)O)C[C@@H](Cc1ccc([N+](=O)[O-])cc1)N(CC(=O)O)CC(=O)O)N(CC(=O)O)CC(=O)O [Vb, (R,R)-{[2-{[2-(Bis-carboxymethyl-amino)-propyl]-carboxymethyl-amino}-1-(4-nitro-benzyl)-ethyl]-carboxymethyl-amino}-acetic acid]
complex stability / complexing properties (in words) [5]: considerably better complexing properties than compounds VIa and VIb
